Where “and” joins values, the source holds several entries; their conditions need not be identical. Equal values may be shown once. One block for each compound: values may come before it.
Columns and labels:
[1] = cited from earlier work
[2] = Pharmacokinetic incorporation of the hydrophilic collyrium in rabbit cornea, retina and plasma (CoQ10 concentration); assay type: in vivo; settings: for RETINA Q10-treated, Average / RETINA Q10-treated: retina of treated eye
Protocol: Assessment of the pharmacokinetic activity of incorporation of the hydrophilic collyrium in rabbit cornea, retina and plasma.
a) The hydrophilic collyrium was assayed on a first lot of three rabbits by instilling Coenzyme Q10 in the right eye and an equivalent excipient free from Q10 and vitamin E TPQS in the contralateral (basal) eye. At + 15 min from the collyrium instillation, CoQ10 concentration in the treated eye and in the other (basal) eye was analysed. The analysis was performed on the retina, the cornea and the plasma of the two eyes.
b) .A second lot of six rabbits was subjected to an analogous assay in which the waiting time was prolonged up to 30 min.

[3] = system: superoxide anion generated by human PMNs (polymorphonucleates); settings: human PMNs suitably stimulated; Ferrocytochrome C method
[4] = treated minus basal, 15 min, average of 3 rabbits
[5] = treated vs basal, 15 min, average of 3 rabbits

incorporation in the cornea ([2]; at both times considered (15 min and 30 min)): scarce
CORNEA Q10-treated, Average ([2]; cornea of treated eye, 15 min, average of 3 rabbits): 1004 pmoles/g
CORNEA Difference, Average ([2]; cornea, treated minus basal, 15 min, average of 3 rabbits): 74 pmol/g
CORNEA %Increase, Average ([2]; cornea, treated vs basal, 15 min, average of 3 rabbits): 7%
CORNEA %Increase ([2]; cornea, treated vs basal, 15 min, individual rabbits): -3% and 65% and -11%
CORNEA %Increase, Average ([2]; cornea, treated vs basal, 30 min, average of 6 rabbits): 4%
PLASMA Q10-treated, Average ([2]; 15 min, average of 3 rabbits): 74 pmoles/g
PLASMA Q10-treated, Average ([2]; 30 min, average of 6 rabbits): 83 pmoles/g
PLASMA Difference, Average [2, 4]: 10 pmol/g
PLASMA Difference, Average ([2]; treated minus basal, 30 min, average of 6 rabbits): 13 pmol/g
PLASMA %Increase, Average [2, 5]: 16%
PLASMA %Increase ([2]; treated vs basal, 15 min, individual rabbits): 15% and 8% and 28%
PLASMA %Increase, Average ([2]; treated vs basal, 30 min, average of 6 rabbits): 18%
PLASMA %Increase ([2]; treated vs basal, 30 min, individual rabbits): 21% (2×) and 7% and 28% and 23% and 12%
RETINA Q10-treated, Average ([2]; 15 min, average of 3 rabbits): 754 pmoles/g
RETINA Q10-treated, Average ([2]; second lot (30 min; head prints 15 min), average of 6 rabbits): 1084.3 pmoles/g
RETINA Difference, Average [2, 4]: 5 pmol/g
RETINA Difference, Average ([2]; treated minus basal, second lot (30 min; head prints 15 min), average of 6 rabbits): 138.8 pmol/g
RETINA %Increase, Average ([2]; treated vs basal (contralateral eye), second lot (30 min; head prints 15 min), average of 6 rabbits): 15%
RETINA % Increase ([2]; treated vs basal eye, 15 min, individual rabbits): -9% and 2% and 11%
RETINA %Increase, Average [2, 5]: 1%
RETINA % Increase ([2]; treated vs basal, second lot (30 min; head prints 15 min), individual rabbits): 21% and 4% and 11% (2×) and 28% and 18%
Compound: COC1=C(OC)C(=O)C(C/C=C(\C)CC/C=C(\C)CC/C=C(\C)CC/C=C(\C)CC/C=C(\C)CC/C=C(\C)CC/C=C(\C)CC/C=C(\C)CC/C=C(\C)CCC=C(C)C)=C(C)C1=O [Formulation Q10, Ubiquinone Q10]
solubility in water [1]: totally insoluble in water
CORNEA Q10-treated ([2]; cornea of treated eye, 15 min, individual rabbits N. 15-17): 887 pmoles/g and 955 pmoles/g and 1170 pmoles/g
CORNEA Difference ([2]; cornea, treated minus basal, 15 min, individual rabbits): -34 pmol/g and 377 pmol/g and -150 pmol/g
CORNEA %Increase ([2]; cornea, treated vs basal, 30 min, individual rabbits): -17% and 16% (2×) and 24% and -7% and -16%
PLASMA Q10-treated ([2]; 15 min, individual rabbits N. 15-17): 62 pmoles/g and 83 pmoles/g and 78 pmoles/g
PLASMA Q10-treated ([2]; 30 min, individual rabbits N. 18-23): 79 pmoles/g and 105 pmoles/g and 106 pmoles/g and 53 pmoles/g and 81 pmoles/g and 73 pmoles/g
PLASMA Difference ([2]; treated minus basal, 15 min, individual rabbits): 8 pmol/g and 6 pmol/g and 17 pmol/g
PLASMA Difference ([2]; treated minus basal, 30 min, individual rabbits): 14 pmoles/g (2×) and 7 pmoles/g and 23 pmoles/g and 10 pmoles/g and 8 pmoles/g
RETINA Q10-treated ([2]; 15 min after instillation, individual rabbits N. 15-17): 787 pmoles/g and 632 pmoles/g and 843 pmoles/g
RETINA Q10-treated ([2]; second lot (waiting time 30 min; head prints 15 min), individual rabbits N. 18-23): 1006 pmoles/g and 1394 pmoles/g and 1037 pmoles/g and 725 pmoles/g and 975 pmoles/g and 1369 pmoles/g
RETINA Difference ([2]; treated minus basal (contralateral) eye, 15 min, individual rabbits): -82 pmol/g and 14 pmol/g and 83 pmol/g
RETINA Difference ([2]; treated minus basal, second lot (30 min; head prints 15 min), individual rabbits): 177 pmol/g and 57 pmol/g and 106 pmol/g and 74 pmol/g and 211 pmol/g and 208 pmol/g

Compound: d-Alpha-tocopheryl polyethylene glycol 1000-succinate [vitamin E TPGS]
scavenging action with regards to the superoxide anion [3]: scavenging action

— patent EP1464341B1, “Ubiquinone-containing water-soluble formulation for ophthalmic use” (Visufarma S.p.A, priority 2003, dated 2004)
